Common to all, as to type: in vivo
One data set has as its system Avena fatua. Briefly: Test Example 4: herbicidal effect by soil treatment (symbol I). An excerpt:
(§1) Herbicidal Effect Test by Soil Treatment
(§2) Sterilized diluvial soil was placed in a plastic box having a length of 21 cm, a width of 13 cm, and a depth of 7 cm. Each of the seeds of Digitaria ciliaris, Setaria viridis, Echinochloa crus-galli var. crus-galli, Avena fatua, Alopecurus myosuroides, Lolium multiflorum Lam., Apera spica-venti, Abutilon theophrasti, Amaranthus retroflexus, Chenopodium album, Stellaria media, Galium spurium, Veronica persica, corn, soybean, rice, wheat, beet, and rapeseed was sowed in a spot-like manner and was covered with the soil of a thickness of about 1.5 cm. Subsequently, the emulsion agent of the compound present invention prepared in accordance with Formulation Example 2 was diluted with water so as to be a predetermined herbicide amount and the diluted emulsion agent was uniformly applied to the surface of the soil with a small-size spray. The plastic box was placed in a greenhouse of 25° C. to 30° C. to grow plant. 3 weeks later from the herbicide application, the effect to each plant was investigated in accordance with the criteria of Test Example 1.

The next data set relates to Stellaria media. Briefly: Test Example 4: herbicidal effect by soil treatment (symbol P).
From the text: as §1, §2

A further data set concerns Digitaria ciliaris. Briefly: Test Example 5: herbicidal effect by foliage application, plastic box (symbol F). The conditions noted are these: 3 weeks after application; for F: Digitaria ciliaris, herbicidal effect grade: 320 g/ha. In a few lines:
(§3)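 Sowing in sterilized diluvial soil, 14 days' greenhouse growth at 25° C. to 30° C., then uniform small-sprayer foliar application of aqueous emulsion dilution; plants scored three weeks afterwards.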

Data set [1] relates to Scirpus juncoides. Briefly: Test Example 1: herbicidal activity, application before weed generation in submerged conditions (symbol B). In a few lines: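 Scores run 0 to 5 by herbicidal ratio, with 5 meaning 90% or more and 0 meaning 5% or lower, read 3 weeks after treatment. Compound was applied as a diluted emulsion to the water surface of submerged alluvial-soil pots on the day weed seeds were sown.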

The test system of data set [2] is Echinochloa oryzacola Vasing. Briefly: Test Example 2: herbicidal activity, application during weed generation in submerged conditions (symbol A). The note with it: Table 23, grade 0-5 by criteria of Test Example 1. In a few lines: (§4)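 Paddy pot test, submerged (4 cm water), alluvial soil, mixed sowing; greenhouse 25–30° C. Emulsion formulation diluted to predetermined rate, applied onto floodwater at 1–2 leaf stage. Visual herbicidal rating at 3 wk post-treatment.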

Data set [3] deals with Echinochloa crus-galli var. crus-galli. Briefly: Test Example 3: herbicidal effect by foliage application, Wagner pot (symbol H). The conditions noted are these: for H (Echinochloa crus-galli var. crus-galli) herbicidal effect grade: Table 24. A digest of the protocol:
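Foliar spray of water-diluted emulsion formulation at a predetermined herbicide amount onto 14-day-old plants in flooded alluvial soil (water depth 0.1–0.5 cm), greenhouse 25–30 °C; rice sown alongside. Scored 3 wk post-application on set criteria.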

The next data set deals with rice plant. Briefly: Test Example 5: effect on crop by foliage application, plastic box (symbol b). The note with it: 3 weeks after application; for b: directly sowed rice plant, effect on crop grade: 320 g/ha. In a few lines: (§5)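 Sterilized diluvial soil, plastic box (21 × 13 × 7 cm); spot sowing, ~1.5 cm soil cover; greenhouse 25–30° C.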
Another data set deals with beet. Briefly: Test Example 4: effect on crop by soil treatment (symbol f). The conditions noted are these: for Effect on crop grade, f: beet: application herbicide amount 320 g/ha.
From the text: as §1
Sterilized diluvial soil was placed in a plastic box having a length of 21 cm, a width of 13 cm, and a depth of 7 cm. Each of the seeds of Digitaria ciliaris, Setaria viridis, Echinochloa crus-galli var. crus-galli, Avena fatua, Alopecurus myosuroides, Lolium multiflorum Lam., Apera spica-venti, Abutilon theophrasti, Amaranthus retroflexus, Chenopodium album, Stellaria media, Galium spurium, Veronica persica, corn, soybean, rice, wheat, beet, and rapeseed was sowed in a spot-like manner and was covered with the soil of a thickness of about 1.5 cm. […] The plastic box was placed in a greenhouse of 25° C. to 30° C. to grow plant.

Another data set concerns rapeseed. The data set can be described thus: Test Example 5: effect on crop by foliage application, plastic box (symbol g). The conditions noted are these: 3 weeks after application; for g: rapeseed, effect on crop grade: 320 g/ha. In a few lines: as §5
Data set [4] relates to Scirpus juncoides. Briefly: Test Example 2: herbicidal activity, application during weed generation in submerged conditions (symbol B). The note with it: Table 23, grade 0-5 by criteria of Test Example 1. A digest of the protocol:
as §4

For another data set, the system named is Chenopodium album. Briefly: Test Example 5: herbicidal effect by foliage application, plastic box (symbol O). The note with it: 320 g/ha, 3 weeks after application. In a few lines: as §3
Where [5] appears, read: application herbicide amount 320 g/ha.
The mark [6] stands for this setting: application herbicide amount 192 g/ha.

Molecules are shown by their SMILES.

Regarding `COCCON=C(CC1CC(O)=C(c2c(C)cc(Br)cc2C)C1=O)C1CC1` (stereo not drawn) [9-019], the “Herbicidal effect grade, I: Avena fatua” value in the data set with Avena fatua (setting [5]) is listed as 0 (Herbicidal ratio of 5% or lower (almost no effect)). In addition, the “Herbicidal effect grade, P: Stellaria media” value in the data set on Stellaria media (setting [5]) is 0 (Herbicidal ratio of 5% or lower (almost no effect)). In addition, in the data set on Digitaria ciliaris, the “F: Digitaria ciliaris, herbicidal effect grade” value is 4 (Herbicidal ratio of 70% or higher and lower than 90%). The “B (Scirpus juncoides) herbicidal effect grade” value in the data set on Scirpus juncoides [1] (setting [5]) is 0 (Herbicidal ratio of 5% or lower (almost no effect)). The “Herbicidal effect grade, A: Echinochloa oryzacola Vasing.” value in data set [2] (setting [5]) is 3 (Herbicidal ratio of 40% or higher and lower than 70%). In addition, the “H (Echinochloa crus-galli var. crus-galli) herbicidal effect grade” value in data set [3] (setting [5]) is 5 (Herbicidal ratio of 90% or more (almost completely withered)). In the data set on rice plant, the “b: directly sowed rice plant, effect on crop grade” value is 3 (Herbicidal ratio of 40% or higher and lower than 70%). For the same molecule, the “Effect on crop grade, f: beet” value with beet is 0 (Herbicidal ratio of 5% or lower (almost no effect)). Moreover, in the data set with rapeseed, the “g: rapeseed, effect on crop grade” value is 1 (Herbicidal ratio of 5% or higher and lower than 20%). Further, in the data set with Scirpus juncoides [4] (setting [5]), the “Herbicidal effect grade, B: Scirpus juncoides” value (“Herbicidal effect grade, B” for short) is listed as 0 (Herbicidal ratio of 5% or lower (almost no effect)). The “O: Chenopodium album, herbicidal effect grade” value (“O: Chenopodium album” for short) in the data set on Chenopodium album is on record as 0 (Herbicidal ratio of 5% or lower (almost no effect)).
On to `COCCON=C(C)CC1CC(O)=C(c2c(C)cc(Br)cc2C)C1=O` (stereo not drawn) [9-017], for which, in the data set on Avena fatua (setting [5]), the “Herbicidal effect grade, I: Avena fatua” value was 0 (Herbicidal ratio of 5% or lower (almost no effect)). Besides, in the data set with Digitaria ciliaris, the “F: Digitaria ciliaris, herbicidal effect grade” value was 4 (Herbicidal ratio of 70% or higher and lower than 90%). For the same molecule, the “B (Scirpus juncoides) herbicidal effect grade” value with Scirpus juncoides [1] (setting [5]) was 2 (Herbicidal ratio of 20% or higher and lower than 40%). Further, in [2] (setting [5]), the “Herbicidal effect grade, A: Echinochloa oryzacola Vasing.” value is 1 (Herbicidal ratio of 5% or higher and lower than 20%). Besides, the “H (Echinochloa crus-galli var. crus-galli) herbicidal effect grade” value in data set [3] (setting [5]) was 5 (Herbicidal ratio of 90% or more (almost completely withered)). The “b: directly sowed rice plant, effect on crop grade” value with rice plant is reported as 5 (Herbicidal ratio of 90% or more (almost completely withered)). Moreover, in the data set on beet, the “Effect on crop grade, f: beet” value is on record as 0 (Herbicidal ratio of 5% or lower (almost no effect)). In the data set on rapeseed, the “g: rapeseed, effect on crop grade” value is 3 (Herbicidal ratio of 40% or higher and lower than 70%). Further, in the data set on Scirpus juncoides [4] (setting [5]), the “Herbicidal effect grade, B” value is given as 0 (Herbicidal ratio of 5% or lower (almost no effect)). Besides, the “O: Chenopodium album” value in the data set on Chenopodium album is 0 (Herbicidal ratio of 5% or lower (almost no effect)).
Take `COCCON=C(CC1CC(O)=C(c2c(C)cc(-n3cc(Cl)cn3)cc2C)C1=O)C1CC1` (stereo not drawn) [9-020]: the “Herbicidal effect grade, I: Avena fatua” value in the data set on Avena fatua (setting [5]) is recorded as 0 (Herbicidal ratio of 5% or lower (almost no effect)). In addition, the “F: Digitaria ciliaris, herbicidal effect grade” value with Digitaria ciliaris is given as 5 (Herbicidal ratio of 90% or more (almost completely withered)). Besides, the “B (Scirpus juncoides) herbicidal effect grade” value in the data set with Scirpus juncoides [1] (setting [5]) is 4 (Herbicidal ratio of 70% or higher and lower than 90%). In addition, in data set [2] (setting [5]), the “Herbicidal effect grade, A: Echinochloa oryzacola Vasing.” value was 4 (Herbicidal ratio of 70% or higher and lower than 90%). In addition, in data set [3] (setting [5]), the “H (Echinochloa crus-galli var. crus-galli) herbicidal effect grade” value is 5 (Herbicidal ratio of 90% or more (almost completely withered)). The “b: directly sowed rice plant, effect on crop grade” value in the data set on rice plant is 5 (Herbicidal ratio of 90% or more (almost completely withered)). Besides, in the data set on beet, the “Effect on crop grade, f: beet” value is 0 (Herbicidal ratio of 5% or lower (almost no effect)). Besides, the “g: rapeseed, effect on crop grade” value with rapeseed is 4 (Herbicidal ratio of 70% or higher and lower than 90%). Moreover, in the data set with Scirpus juncoides [4] (setting [5]), the “Herbicidal effect grade, B” value is 4 (Herbicidal ratio of 70% or higher and lower than 90%). The “O: Chenopodium album” value with Chenopodium album is 3 (Herbicidal ratio of 40% or higher and lower than 70%).
As to `C=CCOC1=C(c2c(C)cc(C)cc2C)C(=O)C(CC(C)=NOC)C1` (stereo not drawn) [1-007], the “I (Avena fatua) herbicidal effect grade” value in the data set with Avena fatua (setting [5]) is given as 0 (Herbicidal ratio of 5% or lower (almost no effect)). The “F: Digitaria ciliaris, herbicidal effect grade” value with Digitaria ciliaris was 0 (Herbicidal ratio of 5% or lower (almost no effect)). Also, the “Herbicidal effect grade, B” value in the data set with Scirpus juncoides [1] (setting [5]) and with Scirpus juncoides [4] (setting [5]) was 0 (Herbicidal ratio of 5% or lower (almost no effect)) in each case. Moreover, the “Herbicidal effect grade, A: Echinochloa oryzacola Vasing.” value in data set [2] (setting [5]) is recorded as 0 (Herbicidal ratio of 5% or lower (almost no effect)). Besides, the “herbicidal effect on H (Echinochloa crus-galli var. crus-galli), grade 0-5” value in [3] (setting [5]) is 0 (Herbicidal ratio of 5% or lower (almost no effect)). The “b: directly sowed rice plant, effect on crop grade” value in the data set with rice plant is 0 (Herbicidal ratio of 5% or lower (almost no effect)). Also, the “g: rapeseed, effect on crop grade” value in the data set with rapeseed is reported as 0 (Herbicidal ratio of 5% or lower (almost no effect)). Moreover, in the data set with Chenopodium album, the “O: Chenopodium album” value is recorded as 0 (Herbicidal ratio of 5% or lower (almost no effect)).
As for `CON=C(C)CC1CC(OC(=O)C2CCCO2)=C(c2c(C)cc(C)cc2C)C1=O` (stereo not drawn) [1-076], the “I: Avena fatua, herbicidal effect grade” value with Avena fatua (192 g/ha) is 4 (Herbicidal ratio of 70% or higher and lower than 90%). Besides, in the data set with Stellaria media (192 g/ha), the “P: Stellaria media, herbicidal effect grade” value was 0 (Herbicidal ratio of 5% or lower (almost no effect)). Besides, in the data set on Digitaria ciliaris (192 g/ha), the “F: Digitaria ciliaris, herbicidal effect (criteria 0-5)” value is 5 (Herbicidal ratio of 90% or more (almost completely withered)). Also, the “Herbicidal effect grade, B” value is 4 (Herbicidal ratio of 70% or higher and lower than 90%) in the data set with Scirpus juncoides [1] (setting [6]); 4 (Herbicidal ratio of 70% or higher and lower than 90%) in the data set with Scirpus juncoides [4] (setting [6]). In addition, in data set [2] (setting [6]), the “Herbicidal effect grade, A: Echinochloa oryzacola Vasing.” value is reported as 5 (Herbicidal ratio of 90% or more (almost completely withered)). Moreover, the “herbicidal effect on H (Echinochloa crus-galli var. crus-galli), grade 0-5” value in [3] (setting [6]) was 5 (Herbicidal ratio of 90% or more (almost completely withered)). Further, in the data set with rice plant (192 g/ha), the “b: directly sowed rice plant, effect on crop (criteria 0-5)” value is on record as 5 (Herbicidal ratio of 90% or more (almost completely withered)). In addition, the “f: beet, effect grade on crop” value with beet (192 g/ha) is given as 0 (Herbicidal ratio of 5% or lower (almost no effect)). In addition, in the data set with rapeseed (192 g/ha), the “g: rapeseed, effect on crop (criteria 0-5)” value is 4 (Herbicidal ratio of 70% or higher and lower than 90%).
With `Cc1cc(Br)cc(C)c1C1=C(O)CC(CC(=NOCC(F)(F)F)C2CC2)C1=O` (stereo not drawn) [9-009], the “Herbicidal effect grade, I: Avena fatua” value in the data set with Avena fatua (setting [5]) is recorded as 0 (Herbicidal ratio of 5% or lower (almost no effect)). For the same molecule, the “F: Digitaria ciliaris, herbicidal effect grade” value with Digitaria ciliaris was 4 (Herbicidal ratio of 70% or higher and lower than 90%). In addition, in the data set with Scirpus juncoides [1] (setting [5]), the “B (Scirpus juncoides) herbicidal effect grade” value is 0 (Herbicidal ratio of 5% or lower (almost no effect)). In addition, the “Herbicidal effect grade, A: Echinochloa oryzacola Vasing.” value in data set [2] (setting [5]) was 2 (Herbicidal ratio of 20% or higher and lower than 40%). The “H (Echinochloa crus-galli var. crus-galli) herbicidal effect grade” value in [3] (setting [5]) is 5 (Herbicidal ratio of 90% or more (almost completely withered)). Besides, the “b: directly sowed rice plant, effect on crop grade” value in the data set on rice plant is recorded as 5 (Herbicidal ratio of 90% or more (almost completely withered)). In addition, the “Effect on crop grade, f: beet” value with beet is listed as 0 (Herbicidal ratio of 5% or lower (almost no effect)). Further, the “g: rapeseed, effect on crop grade” value with rapeseed was 3 (Herbicidal ratio of 40% or higher and lower than 70%). The “Herbicidal effect grade, B” value with Scirpus juncoides [4] (setting [5]) is given as 0 (Herbicidal ratio of 5% or lower (almost no effect)). Moreover, the “O: Chenopodium album” value with Chenopodium album is on record as 0 (Herbicidal ratio of 5% or lower (almost no effect)).

Source of the values: US11000033B2, “Ketone or oxime compound, and herbicide” (NISSAN CHEMICAL CORPORATION, priority 2014, dated 2021).
